Laboratory results as given in PubChem BioAssay (NCI).
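Assay format: 96-well plates, 48-hour exposure. GI50 is the concentration that inhibits growth by half. Definition used: TGI = concentration required for complete inhibition of growth.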

How the values were obtained:
Test in all cases: NCI tumour cell line growth inhibition, 48 h; in the data active means GI50 below about 0.43 µM; inactive means the rest
K-562 leukemia = tested on: K-562 leukemia
HCT-15 colon = tested on: HCT-15 colon
UO-31 renal = tested on: UO-31 renal
COLO 205 colon = tested on: COLO 205 colon
T-47D breast = tested on: T-47D breast
HOP-62 NSCLC = tested on: HOP-62 NSCLC
NCI-H23 lung = tested on: NCI-H23 lung
ACHN renal = tested on: ACHN renal
SK-MEL-2 melanoma = tested on: SK-MEL-2 melanoma
NCI-H226 lung = tested on: NCI-H226 lung
OVCAR-3 ovarian = tested on: OVCAR-3 ovarian
MALME-3M melanoma = tested on: MALME-3M melanoma
MDA-MB-435 = tested on: MDA-MB-435
A498 renal = tested on: A498 renal
IGROV1 ovarian = tested on: IGROV1 ovarian
DU-145 prostate = tested on: DU-145 prostate
BT-549 breast = tested on: BT-549 breast
786-0 renal = tested on: 786-0 renal
HT29 colon = tested on: HT29 colon
M14 melanoma = tested on: M14 melanoma
NCI/ADR-RES ovarian = tested on: NCI/ADR-RES ovarian
SN12C renal = tested on: SN12C renal
SF-268 CNS = tested on: SF-268 CNS
MDA-MB-231 breast = tested on: MDA-MB-231 breast
OVCAR-5 ovarian = tested on: OVCAR-5 ovarian
TK-10 renal = tested on: TK-10 renal
SR leukemia = tested on: SR leukemia
KM12 colon = tested on: KM12 colon
UACC-62 melanoma = tested on: UACC-62 melanoma
EKVX NSCLC = tested on: EKVX NSCLC
HS 578T breast = tested on: HS 578T breast
NCI-H522 lung = tested on: NCI-H522 lung
U251 CNS = tested on: U251 CNS
MOLT-4 leukemia = tested on: MOLT-4 leukemia
SNB-75 CNS = tested on: SNB-75 CNS
SNB-19 CNS = tested on: SNB-19 CNS
PC-3 prostate = tested on: PC-3 prostate
RPMI-8226 leukemia = tested on: RPMI-8226 leukemia
OVCAR-8 ovarian = tested on: OVCAR-8 ovarian
HL-60(TB) leukemia = tested on: HL-60(TB) leukemia
SK-MEL-5 melanoma = tested on: SK-MEL-5 melanoma
SK-OV-3 ovarian = tested on: SK-OV-3 ovarian
HCT-116 colon = tested on: HCT-116 colon
SK-MEL-28 melanoma = tested on: SK-MEL-28 melanoma
UACC-257 melanoma = tested on: UACC-257 melanoma
MCF7 breast = tested on: MCF7 breast
LOX IMVI melanoma = tested on: LOX IMVI melanoma
NCI-H460 lung = tested on: NCI-H460 lung
A549 NSCLC = tested on: A549 NSCLC
SF-539 CNS = tested on: SF-539 CNS
OVCAR-4 ovarian = tested on: OVCAR-4 ovarian
CCRF-CEM leukemia = tested on: CCRF-CEM leukemia
CAKI-1 renal = tested on: CAKI-1 renal
SF-295 CNS = tested on: SF-295 CNS

O=C(N/N=C(\CN1CCN(c2cc3[nH]cc(C(=O)O)c(=O)c3cc2F)CC1)c1ccc(Cl)cc1)c1ccncc1
81.2 µM: TGI (NCI-H23 lung)
87.4 µM: TGI (SF-539 CNS)
26.9 µM: TGI (IGROV1 ovarian)
49.4 µM: TGI (MDA-MB-435)
55.4 µM: TGI (SR leukemia)
49 µM: TGI (UACC-257 melanoma)
52.4 µM: TGI (PC-3 prostate)
65.5 µM: TGI (A549 NSCLC)
31.6 µM: TGI (SK-MEL-5 melanoma)
42.6 µM: TGI (ACHN renal)
47.4 µM: TGI (OVCAR-8 ovarian)
74.4 µM: TGI (SK-MEL-2 melanoma)
79.5 µM: TGI (M14 melanoma)
43.3 µM: TGI (HL-60(TB) leukemia)
19.9 µM: TGI (OVCAR-3 ovarian)
61.8 µM: TGI (SN12C renal)
66.9 µM: TGI (MCF7 breast)
61.9 µM: TGI (UACC-62 melanoma)
41.8 µM: TGI (UO-31 renal)
99.2 µM: TGI (HS 578T breast)
67.6 µM: TGI (NCI-H460 lung)
80.5 µM: TGI (NCI-H226 lung)
46.1 µM: TGI (MDA-MB-231 breast)
52.6 µM: TGI (MOLT-4 leukemia)
52.1 µM: TGI (SF-295 CNS)
43 µM: TGI (RPMI-8226 leukemia)
inactive: GI50 (K-562 leukemia) 26.9 µM | GI50 (HCT-15 colon) 21.1 µM | GI50 (UO-31 renal) 18.7 µM | GI50 (COLO 205 colon) 78 µM | GI50 (T-47D breast) 42.2 µM | GI50 (HOP-62 NSCLC) 39.4 µM | GI50 (NCI-H23 lung) 30.8 µM | GI50 (ACHN renal) 18.4 µM | GI50 (SK-MEL-2 melanoma) 30.7 µM | GI50 (NCI-H226 lung) 23.1 µM | GI50 (OVCAR-3 ovarian) 2890 nM | GI50 (MALME-3M melanoma) 18.6 µM | GI50 (MDA-MB-435) 19.4 µM | GI50 (A498 renal) 23.3 µM | GI50 (IGROV1 ovarian) 3.32 µM | GI50 (DU-145 prostate) 36 µM | GI50 (BT-549 breast) 33.6 µM | GI50 (786-0 renal) 39.9 µM | GI50 (HT29 colon) 37 µM | GI50 (M14 melanoma) 32.3 µM | GI50 (NCI/ADR-RES ovarian) 28.4 µM | GI50 (SN12C renal) 24.8 µM | GI50 (SF-268 CNS) 25.8 µM | GI50 (MDA-MB-231 breast) 20.2 µM | GI50 (OVCAR-5 ovarian) 50.9 µM | GI50 (TK-10 renal) 43 µM | GI50 (SR leukemia) 18.2 µM | GI50 (KM12 colon) 30.6 µM | GI50 (UACC-62 melanoma) 25.6 µM | GI50 (EKVX NSCLC) 38 µM | GI50 (HS 578T breast) 29.1 µM | GI50 (NCI-H522 lung) 22.7 µM | GI50 (U251 CNS) 33.5 µM | GI50 (MOLT-4 leukemia) 22.8 µM | GI50 (SNB-75 CNS) 61.6 µM | GI50 (SNB-19 CNS) 76.9 µM | GI50 (PC-3 prostate) 22.7 µM | GI50 (RPMI-8226 leukemia) 19 µM | GI50 (OVCAR-8 ovarian) 21.4 µM | GI50 (HL-60(TB) leukemia) 19.4 µM | GI50 (SK-MEL-5 melanoma) 16.4 µM | GI50 (SK-OV-3 ovarian) 78.6 µM | GI50 (HCT-116 colon) 37.5 µM | GI50 (SK-MEL-28 melanoma) > 100 µM | GI50 (UACC-257 melanoma) 23.2 µM | GI50 (MCF7 breast) 21 µM | GI50 (LOX IMVI melanoma) 16.8 µM | GI50 (NCI-H460 lung) 22.7 µM | GI50 (A549 NSCLC) 22.3 µM | GI50 (SF-539 CNS) 28.6 µM | GI50 (OVCAR-4 ovarian) 39.8 µM | GI50 (CCRF-CEM leukemia) 22.5 µM | GI50 (CAKI-1 renal) 1960 nM | GI50 (SF-295 CNS) 21 µM
5.61 µM: TGI (CAKI-1 renal)
42.8 µM: TGI (HCT-15 colon)
58 µM: TGI (MALME-3M melanoma)
> 100 µM: TGI (K-562 leukemia) | TGI (COLO 205 colon) | TGI (T-47D breast) | TGI (HOP-62 NSCLC) | TGI (A498 renal) | TGI (DU-145 prostate) | TGI (BT-549 breast) | TGI (786-0 renal) | TGI (HT29 colon) | TGI (OVCAR-5 ovarian) | TGI (TK-10 renal) | TGI (KM12 colon) | TGI (EKVX NSCLC) | TGI (U251 CNS) | TGI (SNB-75 CNS) | TGI (SNB-19 CNS) | TGI (SK-OV-3 ovarian) | TGI (HCT-116 colon) | TGI (SK-MEL-28 melanoma) | TGI (OVCAR-4 ovarian) | TGI (CCRF-CEM leukemia)
52.9 µM: TGI (NCI-H522 lung)
89.9 µM: TGI (SF-268 CNS)
66.3 µM: TGI (NCI/ADR-RES ovarian)
33.4 µM: TGI (LOX IMVI melanoma)
